Test results as given in patent US20120129953A1, “TINGLING AND SALIVATING COMPOSITIONS” (FIRMENICH SA, priority 2006, published 2012).

Assay: Blind test panel evaluation of sugar-free hard-boiled candies by trained evaluators
Type: in vivo
Conditions: hard-boiled candy
Protocol: The composition above was then used to prepare sugar-free hard-boiled candies, as follows: Isomalt (100 g) and water (30 g) were mixed and heated to 160° C. in a copper pan. At 160° C., the copper pan was removed from the heat and placed in a warm water bath (40° C.). When the temperature reached 135° C., aspartame, acesulfame-K, the liquid acidulant mixture (1.0%) and flavor were added. The cooked mass was poured at ambient temperature into appropriate Teflon® molds.
The following Table I summarizes the ingredients and respective dosages used in the preparation as described here above of a control hard-boiled candy according to the prior art and containing only citric acid as acidulant and a candy prepared according to the invention.
The Control candy and the Invention Candy were then evaluated by a panel of trained evaluators, on a blind test, and the results of this evaluation are shown in FIG. 1.

In the case of O=C(O)CC(O)(CC(=O)O)C(=O)O [Citric acid], the impact and sourness is reported as “deliver the expected effect”.
